Ends that are not written are not given here.

Consider one substance from patent US20220152204A1, “PHOTOIMMUNOTHERAPY AND PHARMACEUTICAL AGENT USED THEREFOR” (SHIMADZU CORPORATION, priority 2019, published 2022).

Series [1] concerns Epidermal cancer cells (A431). The series can be described thus: Observation under fluorescent microscope of A431 cells before and after 690 nm laser exposure. The series is classed as cell-based. The settings on record: 20 μg added, 10 minutes at 37° C., 690 nm laser at 50 J. As to the method:
Epidermal cancer cells (A431) were placed at 10,000 cells/mL into a 3.5 mm dish and incubated for 1 day. Subsequently, 20 μg of IF7C-IR700 or IR700 was added to the respective dish and incubation was performed for 10 minutes at 37° C.
Exposure to a 690 nm laser was performed at 50 J, and the A431 cells before and after exposure were observed under a fluorescent microscope (IX61 or IX81; Olympus America). […] From this, it can be inferred that IF7C-IR700 is internalized by cells and undergoes a reaction, causing the cells to shrink.

For series [2], the system named is xenograft model animals implanted with A431. The series can be described thus: Mouse experiment: fluorescent intensity monitoring of pharmaceutical agent accumulation in A431 xenograft model animals. The series is classed as in vivo. As to conditions: A431 xenograft mice, 0.033 μmol, Pearl Imager, monitored up to 180 min. As to the method:
Five xenograft model animals implanted with A431 were treated with 0.033 μmol IF7C-IR700, and the fluorescent intensity of body surface, tumor and liver of the mice was monitored at 10 min intervals for up to 60 min and at 30 min intervals for up to 180 min with a Pearl Imager (LI-COR Bioscience) to check for accumulation of pharmaceutical agent. The fluorescent intensity over the tumor reached a maximum at 60 min, so exposure to therapeutic light was performed 60 min after pharmaceutical agent injection to carry out NIR-PIT with IF7C-IR700. For the PIT, exposure to NIR light was performed under conditions which enable cleavage of the IR700, at a wavelength of 680 nm to 690 nm and a dose of 10 J/cm^2.

As for “IF7C-IR700: IF7-C peptide (IFLLWQRC, SEQ ID NO: 6) conjugated with IR700 maleimide via the cysteine SH residue (IFLLWQRC(IR700 maleimide))”, the “cell shrinkage observed under fluorescent microscope after exposure” value in series [1] is given as “the cells had shrunk”. Further, in series [2], the “time at which fluorescent intensity over the tumor reached a maximum” value came out at 60 min.
